Assay results published in patent publication US9237747B2, “Herbicidal compositions comprising 4-amino-3-chloro-5-fluoro-6-(4-chloro-2-fluoro-3-methoxyphenyl) pyridine-2-carboxylic acid or a derivative thereof and insecticides” (priority 2013, dated 2016).
Values joined by “and” are separate entries in the source; they are usually repeats but may differ in a detail not shown here. Equal entries are not always repeated. Where two headings read alike, the source gives them in different places.

How the values were obtained:
[1] = system: LEFCH; test: whole plant or invertebrate; assay type: in vivo, Leptochloa chinensis
In short: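 Values are visual percent injury or growth inhibition relative to untreated plants, scored ~3 weeks after postemergence spraying, with Colby-expected mixture values computed as A+B−(A×B/100). Treatments were SC-formulated Compound A acid or esters plus insecticidal partners, applied in 1.25% v/v crop oil concentrate at 187 L/ha.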

[2] = system: ECHCO; test: Postemergence foliar-applied weed control, direct-seeded rice (greenhouse); assay type: in vivo, Echinochloa colonum
Procedure: Seeds or nutlets of the desired test plant species were planted in a soil matrix prepared by mixing a loam or sandy loam soil (e.g., 28.6 percent silt, 18.8 percent clay, and 52.6 percent sand, with a pH of about 5.8 and an organic matter content of about 1.8 percent) and calcareous grit in an 80 to 20 ratio. The soil matrix was contained in plastic pots with a volume of 1 quart and a surface area of 83.6 square centimeters (cm^2). […] The plants were grown for 8-22 days in a greenhouse with an approximate 14 hour (h) photoperiod which was maintained at about 29° C. during the day and 26° C. during the night. Nutrients (Peters Excel® 15-5-15 5-Ca 2-Mg and iron chelate) were applied in the irrigation solution as needed and water was added on a regular basis. Supplemental lighting was provided with overhead metal halide 1000-Watt lamps as necessary. The plants were employed for testing when they reached the first through fourth true leaf stage.
Treatments consisted of the acid or esters of 4-amino-3-chloro-6-(4-chloro-2-fluoro-3-methoxyphenyl)-5-fluoropyridine-2-carboxylic acid (Compound A), each formulated as an SC (suspension concentrate), and various insecticidal components alone and in combination. Forms of compound A were applied on an acid equivalent basis.
For treatments comprised of formulated compounds, measured amounts of compounds were placed individually in 25 mL glass vials and diluted in a volume of 1.25% volume per volume (v/v) Agri-Dex® crop oil concentrate to obtain 12× stock solutions. […] Application solutions were prepared by adding an appropriate amount of each stock solution (e.g., 1 mL) and diluted to the appropriate final concentrations with the addition of […] of an aqueous mixture of 1.25% (v/v) crop oil concentrate so that the final spray solutions contained 1.25+/−0.05% (v/v) crop oil concentrate.
As required, additional water and/or 97:3 v/v acetone/DMSO was added to individual application solutions so that the final acetone and DMSO concentrations of the application solutions being compared were 8.1% and 0.25%, respectively.
All stock solutions and applications solutions were visually inspected for compound compatibility prior to application. Spray solutions were applied to the plant material with an overhead Mandel track sprayer equipped with 8002E nozzles calibrated to deliver 187 L/ha over an application area of 0.503 square meters (m^2) at a spray height of 18 to 20 inches (46 to 50 cm) above average plant canopy height. Control plants were sprayed in the same manner with the solvent blank.
The treated plants and control plants were placed in a greenhouse as described above and watered by sub-irrigation to prevent wash-off of the test compounds. After approximately 3 weeks, the condition of the test plants as compared to that of the untreated plants was determined visually and scored on a scale of 0 to 100 percent where 0 corresponds to no injury or growth inhibition and 100 corresponds to complete kill.
Colby's equation was used to determine the herbicidal effects expected from the mixtures (Colby, S. R. Calculation of the synergistic and antagonistic response of herbicide combinations. Weeds 1967, 15, 20-22.).
The following equation was used to calculate the expected activity of mixtures containing two active ingredients, A and B: Expected=A+B−(A×B/100)

## COc1c(Cl)ccc(-c2nc(C(=O)O)c(Cl)c(N)c2F)c1F [Compound A Acid, 4-amino-3-chloro-6-(4-chloro-2-fluoro-3-methoxyphenyl)-5-fluoropyridine-2-carboxylic acid]
[1]; 4.38 g ae/ha alone
  Visual Weed Control (%) - 20 DAA LEFCH Obs: 0%
[1]; 5.3 g ae/ha alone
  Visual Weed Control (%) - 20 DAA LEFCH Obs: 0%
[1]; 10.6 g ae/ha alone
  Visual Weed Control (%) - 20 DAA LEFCH Obs: 20%
[1]; 21 DAA, 8.75 g ae/ha alone
  Visual Weed Control (%) - 21 DAA LEFCH Obs: 30%
[1]; 21 DAA, 17.5 g ae/ha alone
  Visual Weed Control (%) - 21 DAA LEFCH Obs: 30%
[1]; 21.2 g ae/ha alone
  Visual Weed Control (%) - 20 DAA LEFCH Obs: 45%
[2]; 4.38 g ae/ha alone
  Visual Weed Control (%) - 22 DAA ECHCO Obs: 55%
  Visual Weed Control (%) - 21 DAA ECHCO Obs: 60%
[2]; 8.75 g ae/ha alone
  Visual Weed Control (%) - 21 DAA ECHCO Obs: 90%
[2]; 17.5 g ae/ha alone
  Visual Weed Control (%) - 21 DAA ECHCO Obs: 95%

## COc1c(Cl)ccc(-c2nc(C(=O)OCc3ccccc3)c(Cl)c(N)c2F)c1F [Compound A Benzyl Ester]
[1]; 4.38 g ae/ha alone
  Visual Weed Control (%) - 20 DAA LEFCH Obs: 15% and 20%
  Visual Weed Control (%) - 21 DAA LEFCH Obs: 10%
[1]; 8 g ae/ha alone
  Visual Weed Control (%) - 19 DAA LEFCH Obs: 45%
  Visual Weed Control (%) - 20 DAA LEFCH Obs: 15%
[1]; 8.75 g ae/ha alone
  Visual Weed Control (%) - 20 DAA LEFCH Obs: 30% and 35%
  Visual Weed Control (%) - 21 DAA LEFCH Obs: 25%
[1]; 16 g ae/ha alone
  Visual Weed Control (%) - 19 DAA LEFCH Obs: 45%
  Visual Weed Control (%) - 20 DAA LEFCH Obs: 25%
[1]; 17.5 g ae/ha alone
  Visual Weed Control (%) - 20 DAA LEFCH Obs: 50% and 60%
  Visual Weed Control (%) - 21 DAA LEFCH Obs: 30%
[1]; 19 DAA, 8 g ae/ha alone
  Visual Weed Control (%) - 19 DAA LEFCH Obs: 45%
[1]; 19 DAA, 16 g ae/ha alone
  Visual Weed Control (%) - 19 DAA LEFCH Obs: 45%
[1]; 19 DAA, 32 g ae/ha alone
  Visual Weed Control (%) - 19 DAA LEFCH Obs: 50%
[1]; 21 DAA, 8 g ae/ha alone
  Visual Weed Control (%) - 21 DAA LEFCH Obs: 15%
[1]; 21 DAA, 16 g ae/ha alone
  Visual Weed Control (%) - 21 DAA LEFCH Obs: 15%
[1]; 21 DAA, 17.5 g ae/ha alone
  Visual Weed Control (%) - 21 DAA LEFCH Obs: 50%
[1]; 21 DAA, 32 g ae/ha alone
  Visual Weed Control (%) - 21 DAA LEFCH Obs: 25%
[1]; 32 g ae/ha alone
  Visual Weed Control (%) - 19 DAA LEFCH Obs: 50%
  Visual Weed Control (%) - 20 DAA LEFCH Obs: 30%
[1]; Dinebra chinensis, post-emergence, 528 h, 4.38 g ae/ha alone, read-out: Visual Weed Control (%) - 22 DAA LEFCH Obs
  pest or weed control at 4.38 g/ha: 30%
[1]; Dinebra chinensis, post-emergence, 528 h, 8 g ae/ha alone, read-out: Visual Weed Control (%) - 22 DAA LEFCH Obs
  pest or weed control at 8 g/ha: 25%
[1]; Dinebra chinensis, post-emergence, 528 h, 16 g ae/ha alone, read-out: Visual Weed Control (%) - 22 DAA LEFCH Obs
  pest or weed control at 16 g/ha: 30%
[1]; Dinebra chinensis, post-emergence, 528 h, 22 DAA, 8 g ae/ha alone, second part of Table 18, read-out: Visual Weed Control (%) - 22 DAA LEFCH Obs
  pest or weed control at 8 g/ha: 18%
[1]; Dinebra chinensis, post-emergence, 528 h, 22 DAA, 16 g ae/ha alone, read-out: Visual Weed Control (%) - 22 DAA LEFCH Obs
  pest or weed control at 16 g/ha: 25%
[1]; Dinebra chinensis, post-emergence, 528 h, 22 DAA, 16 g ae/ha alone, second part of Table 18, read-out: Visual Weed Control (%) - 22 DAA LEFCH Obs
  pest or weed control at 16 g/ha: 43%
[1]; Dinebra chinensis, post-emergence, 528 h, 22 DAA, 32 g ae/ha alone, read-out: Visual Weed Control (%) - 22 DAA LEFCH Obs
  pest or weed control at 32 g/ha: 55%
[1]; Dinebra chinensis, post-emergence, 528 h, 22 DAA, 32 g ae/ha alone, second part of Table 18, read-out: Visual Weed Control (%) - 22 DAA LEFCH Obs
  pest or weed control at 32 g/ha: 53%
[1]; Dinebra chinensis, post-emergence, 528 h, 32 g ae/ha alone, read-out: Visual Weed Control (%) - 22 DAA LEFCH Obs
  pest or weed control at 32 g/ha: 60%
[2]; 8 g ae/ha alone
  Visual Weed Control (%) - 19 DAA ECHCO Obs: 65%
  Visual Weed Control (%) - 20 DAA ECHCO Obs: 65%
[2]; 16 g ae/ha alone
  Visual Weed Control (%) - 19 DAA ECHCO Obs: 90%
[2]; 19 DAA, 8 g ae/ha alone
  Visual Weed Control (%) - 19 DAA ECHCO Obs: 65%
[2]; 19 DAA, 16 g ae/ha alone
  Visual Weed Control (%) - 19 DAA ECHCO Obs: 90%
[2]; 19 DAA, 32 g ae/ha alone
  Visual Weed Control (%) - 19 DAA ECHCO Obs: 95%
[2]; 32 g ae/ha alone
  Visual Weed Control (%) - 19 DAA ECHCO Obs: 95%

## CC(c1ccc(C(F)(F)F)nc1)S(C)(=O)=NC#N (stereo not drawn) [Sulfoxaflor, N-[methyloxido[1-[6-(trifluoromethyl)-3-pyridinyl]ethyl]-λ^4-sulfanylidene]cyanamide]
[1]; 21 DAA, 12.5 g ai/ha alone
  Visual Weed Control (%) - 21 DAA LEFCH Obs: 0%
[1]; 21 DAA, 25 g ai/ha alone
  Visual Weed Control (%) - 21 DAA LEFCH Obs: 0%
[1]; 21 DAA, 37.5 g ai/ha alone
  Visual Weed Control (%) - 21 DAA LEFCH Obs: 0%
[1]; 21 DAA, 50 g ai/ha alone
  Visual Weed Control (%) - 21 DAA LEFCH Obs: 0%
[1]; 21 DAA, 75 g ai/ha alone
  Visual Weed Control (%) - 21 DAA LEFCH Obs: 0%
[1]; 21 DAA, 150 g ai/ha alone
  Visual Weed Control (%) - 21 DAA LEFCH Obs: 0%
[2]; 12.5 g ai/ha alone
  Visual Weed Control (%) - 21 DAA ECHCO Obs: 0%
[2]; 25 g ai/ha alone
  Visual Weed Control (%) - 21 DAA ECHCO Obs: 0%
[2]; 50 g ai/ha alone
  Visual Weed Control (%) - 21 DAA ECHCO Obs: 0%
